This is an account of results in ChEMBL document CHEMBL3769303, “Discovery of membrane active benzimidazole quinolones-based topoisomerase inhibitors as potential DNA-binding antimicrobial agents” (Eur J Med Chem, 2016).

What all share (format): functional
The subject of experiment [1] is Staphylococcus aureus. Briefly: Antibacterial activity against methicillin-resistant Staphylococcus aureus N315 by micro broth dilution method. A general note: Dilution methods test growth across graded concentrations, often in twofold steps.
Experiment [2] in a line: Antifungal activity against Candida mycoderma ATCC 9888 after 24 hrs by micro broth dilution method. Conditions: Candida vini.
For the next experiment, the system named is Saccharomyces cerevisiae. As to the kind of experiment: Antifungal activity against Saccharomyces cerevisiae ATCC 9763 after 24 hrs by micro broth dilution method. Conditions: ATCC 9763, 24 h.
The next experiment concerns Aspergillus flavus. As to the kind of experiment: Antifungal activity against Aspergillus flavus ATCC 204304 after 24 hrs by micro broth dilution method. The conditions noted are these: ATCC 204304, 24 h.
Experiment [3] can be described thus: Antibacterial activity against Bacillus proteus ATCC 13315 by micro broth dilution method.
A further experiment has as its system Cyberlindnera jadinii. Briefly: Antifungal activity against Candida utilis ATCC 9950 after 24 hrs by micro broth dilution method. Conditions: Williopsis jadinii, ATCC 9950, 24 h.
The next experiment deals with Pseudomonas aeruginosa. As to the kind of experiment: Antibacterial activity against Pseudomonas aeruginosa ATCC 27853 by micro broth dilution method.
The next experiment concerns Candida albicans. Briefly: Antifungal activity against Candida albicans ATCC 10231 after 24 hrs by micro broth dilution method. Conditions: ATCC 10231, 24 h.
For experiment [4], the system named is Staphylococcus aureus. As to the kind of experiment: Antibacterial activity against Staphylococcus aureus ATCC 25923 by micro broth dilution method.
The next experiment relates to Micrococcus luteus. As to the kind of experiment: Antibacterial activity against Micrococcus luteus ATCC 4698 by micro broth dilution method. The conditions noted are these: NCTC 2665.
The test system of a further experiment is Bacillus spizizenii. Briefly: Antibacterial activity against Bacillus subtilis ATCC 6633 by micro broth dilution method.
The subject of experiment [5] is Escherichia coli. Briefly: Antibacterial activity against Escherichia coli DH52 by micro broth dilution method.
Experiment [6] has as its system Escherichia coli. As to the kind of experiment: Antibacterial activity against Escherichia coli JM109 by micro broth dilution method.
A further experiment deals with Salmonella enterica. As to the kind of experiment: Antibacterial activity against Salmonella enterica ATCC 14028 by micro broth dilution method.
Another experiment deals with Shigella dysenteriae. As to the kind of experiment: Antibacterial activity against Shigella dysenteriae by micro broth dilution method.

Converted amounts (≈) assume the structure as drawn.

For the molecule `O=C(O)c1cn(C2CC2)c2cc(N3CCN(Cc4nc5ccccc5n4Cc4ccccc4F)CC3)c(F)cc2c1=O`, the MIC in the experiment on Staphylococcus aureus [1] was determined as 0.25 µg/mL (≈ 0.439 µM); in [3], 1 µg/mL (≈ 1.76 µM); with Pseudomonas aeruginosa it was 2 µg/mL (≈ 3.51 µM); in the experiment with Staphylococcus aureus [4] it was 16 µg/mL (≈ 28.1 µM); in the experiment with Micrococcus luteus it was 0.25 µg/mL (≈ 0.439 µM); with Bacillus spizizenii it was 8 µg/mL (≈ 14 µM). In addition, the minimum inhibitory concentration (MIC) against Escherichia coli [5] is 1 µg/mL (≈ 1.76 µM); in the experiment with Escherichia coli [6], 2 µg/mL (≈ 3.51 µM); against Salmonella enterica, 0.25 µg/mL (≈ 0.439 µM); in the experiment on Shigella dysenteriae, 4 µg/mL (≈ 7.02 µM). For the same molecule, the MIC80 was determined as 16 µg/mL (≈ 28.1 µM) in experiment [2]; 32 µg/mL (≈ 56.2 µM) against Saccharomyces cerevisiae; 16 µg/mL (≈ 28.1 µM) in the experiment on Aspergillus flavus; 8 µg/mL (≈ 14 µM) against Cyberlindnera jadinii; 32 µg/mL (≈ 56.2 µM) against Candida albicans.
As to `CCCCCCn1c(CN2CCN(c3cc4c(cc3F)c(=O)c(C(=O)O)cn4CC)CC2)nc2ccccc21`, the MIC is 32 µg/mL (≈ 60 µM) in the experiment with Staphylococcus aureus [1]; 4 µg/mL (≈ 7.5 µM) in experiment [3]; 16 µg/mL (≈ 30 µM) in the experiment on Pseudomonas aeruginosa; 256 µg/mL (≈ 480 µM) with Staphylococcus aureus [4]; 4 µg/mL (≈ 7.5 µM) with Micrococcus luteus; 16 µg/mL (≈ 30 µM) in the experiment on Bacillus spizizenii. Moreover, the minimum inhibitory concentration (MIC) in the experiment with Escherichia coli [5] is 4 µg/mL (≈ 7.5 µM); against Escherichia coli [6], 64 µg/mL (≈ 120 µM); in the experiment on Salmonella enterica it was 8 µg/mL (≈ 15 µM); in the experiment with Shigella dysenteriae it was 32 µg/mL (≈ 60 µM). The MIC80 in [2] is 8 µg/mL (≈ 15 µM); with Saccharomyces cerevisiae, 128 µg/mL (≈ 240 µM); in the experiment on Aspergillus flavus, 128 µg/mL (≈ 240 µM); with Cyberlindnera jadinii, 32 µg/mL (≈ 60 µM); with Candida albicans, 16 µg/mL (≈ 30 µM).
In the case of `O=C(O)c1cn(C2CC2)c2cc(N3CCN(c4nc5ccccc5[nH]4)CC3)c(F)cc2c1=O`, the MIC in the experiment with Staphylococcus aureus [1] was found to be 0.5 µg/mL (≈ 1.12 µM); in experiment [3], 2 µg/mL (≈ 4.47 µM); against Pseudomonas aeruginosa, 0.5 µg/mL (≈ 1.12 µM); in the experiment with Staphylococcus aureus [4], 1 µg/mL (≈ 2.23 µM); in the experiment with Micrococcus luteus, 1 µg/mL (≈ 2.23 µM); against Bacillus spizizenii it was 2 µg/mL (≈ 4.47 µM). Also, the MIC in the experiment with Escherichia coli [5] came out at 1 µg/mL (≈ 2.23 µM); in the experiment with Escherichia coli [6], 2 µg/mL (≈ 4.47 µM); in the experiment on Salmonella enterica, 1 µg/mL (≈ 2.23 µM); in the experiment on Shigella dysenteriae, 0.5 µg/mL (≈ 1.12 µM). The MIC80 in [2] was 16 µg/mL (≈ 35.8 µM); with Saccharomyces cerevisiae, 1 µg/mL (≈ 2.23 µM); in the experiment on Aspergillus flavus, 1 µg/mL (≈ 2.23 µM); in the experiment with Cyberlindnera jadinii it was 4 µg/mL (≈ 8.94 µM); in the experiment on Candida albicans, 2 µg/mL (≈ 4.47 µM).
Consider `CCCCCCCCn1c(CN2CCN(c3cc4c(cc3F)c(=O)c(C(=O)O)cn4C3CC3)CC2)nc2ccccc21`, for which the MIC in the experiment on Staphylococcus aureus [1] worked out at 1 µg/mL (≈ 1.74 µM); in [3], 0.5 µg/mL (≈ 0.872 µM); against Pseudomonas aeruginosa, 1 µg/mL (≈ 1.74 µM); against Staphylococcus aureus [4] it was 16 µg/mL (≈ 27.9 µM); against Micrococcus luteus it was 1 µg/mL (≈ 1.74 µM); in the experiment with Bacillus spizizenii it was 32 µg/mL (≈ 55.8 µM). The minimal inhibitory concentration (MIC) in the experiment with Escherichia coli [5] is 0.5 µg/mL (≈ 0.872 µM); against Escherichia coli [6] it was 2 µg/mL (≈ 3.49 µM); with Salmonella enterica, 4 µg/mL (≈ 6.97 µM); against Shigella dysenteriae it was 4 µg/mL (≈ 6.97 µM). The MIC80 worked out at 1 µg/mL (≈ 1.74 µM) in experiment [2]; 16 µg/mL (≈ 27.9 µM) against Saccharomyces cerevisiae; 1 µg/mL (≈ 1.74 µM) with Aspergillus flavus; 2 µg/mL (≈ 3.49 µM) with Cyberlindnera jadinii; 1 µg/mL (≈ 1.74 µM) with Candida albicans.
Turning to `CCn1cc(C(=O)O)c(=O)c2cc(F)c(N3CCN(Cc4nc5ccccc5n4Cc4ccc(Cl)cc4Cl)CC3)cc21`, the MIC was determined as 0.125 µg/mL (≈ 0.205 µM) in the experiment with Staphylococcus aureus [1]; 1 µg/mL (≈ 1.64 µM) in experiment [3]; 1 µg/mL (≈ 1.64 µM) in the experiment with Pseudomonas aeruginosa; 4 µg/mL (≈ 6.57 µM) against Staphylococcus aureus [4]; 0.25 µg/mL (≈ 0.411 µM) in the experiment on Micrococcus luteus; 8 µg/mL (≈ 13.1 µM) against Bacillus spizizenii. Besides, the MIC in the experiment with Escherichia coli [5] was 1 µg/mL (≈ 1.64 µM); against Escherichia coli [6], 4 µg/mL (≈ 6.57 µM); in the experiment with Salmonella enterica, 0.25 µg/mL (≈ 0.411 µM); against Shigella dysenteriae, 2 µg/mL (≈ 3.29 µM). Further, the MIC80 in experiment [2] is 1 µg/mL (≈ 1.64 µM); against Saccharomyces cerevisiae, 2 µg/mL (≈ 3.29 µM); against Aspergillus flavus, 1 µg/mL (≈ 1.64 µM); in the experiment on Cyberlindnera jadinii, 0.5 µg/mL (≈ 0.822 µM); in the experiment with Candida albicans, 0.5 µg/mL (≈ 0.822 µM).
In the case of `OC(Cn1cncn1)(Cn1cncn1)c1ccc(F)cc1F` [FLUCONAZOLE], the MIC80 in experiment [2] was 4 µg/mL (≈ 13.1 µM); against Saccharomyces cerevisiae, 16 µg/mL (≈ 52.2 µM); in the experiment on Aspergillus flavus, 256 µg/mL (≈ 836 µM); against Cyberlindnera jadinii, 8 µg/mL (≈ 26.1 µM); against Candida albicans, 1 µg/mL (≈ 3.27 µM).
Take `CCCCCCCCCCn1c(CN2CCN(c3cc4c(cc3F)c(=O)c(C(=O)O)cn4CC)CC2)nc2ccccc21`: the MIC came out at 8 µg/mL (≈ 13.6 µM) against Staphylococcus aureus [1]; 8 µg/mL (≈ 13.6 µM) in [3]; 4 µg/mL (≈ 6.78 µM) against Pseudomonas aeruginosa; 32 µg/mL (≈ 54.3 µM) against Staphylococcus aureus [4]; 16 µg/mL (≈ 27.1 µM) in the experiment on Micrococcus luteus; 4 µg/mL (≈ 6.78 µM) with Bacillus spizizenii. Besides, the MIC in the experiment on Escherichia coli [5] was 0.5 µg/mL (≈ 0.848 µM); in the experiment on Escherichia coli [6], 32 µg/mL (≈ 54.3 µM); against Salmonella enterica, 8 µg/mL (≈ 13.6 µM); against Shigella dysenteriae, 8 µg/mL (≈ 13.6 µM). Further, the MIC80 was 8 µg/mL (≈ 13.6 µM) in experiment [2]; 4 µg/mL (≈ 6.78 µM) in the experiment on Saccharomyces cerevisiae; 4 µg/mL (≈ 6.78 µM) in the experiment on Aspergillus flavus; 4 µg/mL (≈ 6.78 µM) against Cyberlindnera jadinii; 16 µg/mL (≈ 27.1 µM) against Candida albicans.

One may read the MIC as the smallest concentration in the dilution series that meets the test's criterion for growth inhibition. Low readings indicate a more susceptible organism, high ones a less susceptible organism. As a reminder, the MIC80 is an inhibitory concentration at the 80% level, which refers to growth in some studies and to a panel of isolates in others. A low value points to higher susceptibility.
